# Results from US11963960B2 (Flash Therapeutics, LLC, priority 2020, dated 2024).
# Target: N-terminally GST-tagged HCK (75-526) (Homo sapiens (Human), UniProt P08631)
# Test: HCK Kinase Assay (ProFluor Src-Family Kinase Assay)
# Assay type: biochemical
# Details: HCK inhibitory activity, 50 μM ATP; read-out: HCK Activity
# How it was run: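 ProFluor Src-family format: after the kinase reaction, protease solution was added for 60 min at room temperature (22-25° C), then stabilizer.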
# Sequence of N-terminally GST-tagged HCK (75-526) (P08631 75-526): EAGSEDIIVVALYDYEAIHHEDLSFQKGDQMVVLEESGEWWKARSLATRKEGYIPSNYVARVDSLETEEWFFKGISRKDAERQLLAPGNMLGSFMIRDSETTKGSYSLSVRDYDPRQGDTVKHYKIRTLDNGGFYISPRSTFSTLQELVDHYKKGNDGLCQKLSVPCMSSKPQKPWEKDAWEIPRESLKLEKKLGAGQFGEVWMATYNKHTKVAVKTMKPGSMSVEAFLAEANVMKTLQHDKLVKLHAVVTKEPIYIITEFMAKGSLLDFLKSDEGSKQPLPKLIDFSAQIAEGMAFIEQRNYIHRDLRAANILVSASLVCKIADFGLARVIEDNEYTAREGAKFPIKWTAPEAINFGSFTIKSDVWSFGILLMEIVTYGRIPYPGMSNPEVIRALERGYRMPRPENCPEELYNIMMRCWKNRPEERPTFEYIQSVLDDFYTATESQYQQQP
compound,measurement,value
"C[C@@H]1CN([C@H]2CC[C@H](n3cc(-c4ccc(Oc5ccccc5)cc4)c4c(N)ncnc43)CC2)C[C@H](C)N1 [Example 25, 7-((trans)-4-((3S,5R)-3,5-dimethylpiperazin-1-yl)cyclohexyl)-5-(4-phenoxyphenyl)-7H-pyrrolo[2,3-d]pyrimidin-4-amine]",IC50,0.05 to 0.25 µM
"Nc1ncnc2c1c(-c1ccc(Oc3ccccc3)cc1)cn2[C@H]1CC[C@H](NC2CNC2)CC1 [Example 83, 7-((trans)-4-(azetidin-3-ylamino)cyclohexyl)-5-(4-phenoxyphenyl)-7H-pyrrolo[2,3-d]pyrimidin-4-amine]",IC50,0.05 to 0.25 µM
"C[N+]1(C)CCN([C@H]2CC[C@@H](n3nc(-c4ccc(Oc5ccccc5)cc4F)c4c(N)ncnc43)CC2)CC1 [Example 8, 4-((cis)-4-(4-amino-3-(2-fluoro-4-phenoxyphenyl)-1H-pyrazolo[3,4-d]pyrimidin-1-yl)cyclohexyl)-1,1-dimethylpiperazin-1-ium]",IC50,0.05 to 0.25 µM
"CC[C@H]1CN([C@H]2CC[C@H](n3nc(-c4ccc(Oc5ccccc5)cc4F)c4c(N)ncnc43)CC2)CCN1 [Example 31, 1-((trans)-4-((S)-3-ethylpiperazin-1-yl)cyclohexyl)-3-(2-fluoro-4-phenoxyphenyl)-1H-pyrazolo[3,4-d]pyrimidin-4-amine]",IC50,< 0.05 µM
"CN1CCN([C@H]2CC[C@@H](c3cc(-c4ccc(Oc5ccccc5)cc4)c4c(N)ncnn43)CC2)CC1 [Example 167, 7-((cis)-4-(4-Methylpiperazin-1-yl)cyclohexyl)-5-(4-phenoxyphenyl)pyrrolo[2,1-f][1,2,4]triazin-4-amine]",IC50,0.25 to 10 µM
"Nc1ncnc2c1c(-c1ccc(Oc3ccccc3)cc1)cn2[C@H]1CC[C@H](N2CCN(N)CC2)CC1 [Example 38, 7-((trans)-4-(4-aminopiperazin-1-yl)cyclohexyl)-5-(4-phenoxyphenyl)-7H-pyrrolo[2,3-d]pyrimidin-4-amine]",IC50,< 0.05 µM
"CC[C@H]1CN([C@H]2CC[C@@H](n3nc(-c4ccc(Oc5ccccc5)cc4F)c4c(N)ncnc43)CC2)CCN1 [Example 32, 1-((cis)-4-((S)-3-ethylpiperazin-1-yl)cyclohexyl)-3-(2-fluoro-4-phenoxyphenyl)-1H-pyrazolo[3,4-d]pyrimidin-4-amine]",IC50,0.05 to 0.25 µM
"Cc1ccc(Oc2ccc(-c3cn([C@H]4CC[C@H](N5CCN(C)CC5)CC4)c4ncnc(N)c34)cc2)cc1 [Example 111, 7-((trans)-4-(4-methylpiperazin-1-yl)cyclohexyl)-5-(4-(p-tolyloxy)phenyl)-7H-pyrrolo[2,3-d]pyrimidin-4-amine]",IC50,0.05 to 0.25 µM
"Nc1ncnc2c1c(-c1ccc(Oc3ccccc3)cc1)cn2[C@H]1CC[C@H](N2CCNC3(CC3)C2)CC1 [Example 35, 7-((trans)-4-(4,7-diazaspiro[2.5]octan-7-yl)cyclohexyl)-5-(4-phenoxyphenyl)-7H-pyrrolo[2,3-d]pyrimidin-4-amine]",IC50,< 0.05 µM
"CCN1CCC(N2CCC(n3nc(-c4ccc(Oc5ccccc5)cc4F)c4c(N)ncnc43)CC2)CC1 [Example 152, 1-(1′-ethyl-[1,4′-bipiperidin]-4-yl)-3-(2-fluoro-4-phenoxyphenyl)-1H-pyrazolo[3,4-d]pyrimidin-4-amine]",IC50,< 0.05 µM
"CN1CCN([C@H]2CC[C@H](n3cc(-c4ccc(CC(=O)Nc5cc(C(C)(C)C)on5)cc4)c4c(N)ncnc43)CC2)CC1 [Example 124, 2-(4-(4-amino-7-((trans)-4-(4-methylpiperazin-1-yl)cyclohexyl)-7H-pyrrolo[2,3-d]pyrimidin-5-yl)phenyl)-N-(5-(tert-butyl)isoxazol-3-yl)acetamide]",IC50,0.05 to 0.25 µM
"CN1CCC(N2CCC(n3nc(-c4ccc(Oc5ccccc5)cc4F)c4c(N)ncnc43)CC2)CC1 [Example 147, 3-(2-fluoro-4-phenoxyphenyl)-1-(1′-methyl-[1,4′-bipiperidin]-4-yl)-1H-pyrazolo[3,4-d]pyrimidin-4-amine]",IC50,< 0.05 µM
"Nc1ncnc2c1c(-c1ccc(Oc3ccccc3)cc1)cn2[C@H]1CC[C@H](N2CCNCC2=O)CC1 [Example 90, 1-((trans)-4-(4-Amino-5-(4-phenoxyphenyl)-7H-pyrrolo[2,3-d]pyrimidin-7-yl)cyclohexyl)piperazin-2-one]",IC50,< 0.05 µM
"CNC(=O)CC1(NC)CCC(n2cc(-c3ccc(Oc4ccccc4)cc3)c3c(N)ncnc32)CC1 (centres unmarked) [Example 98, 2-(4-(4-amino-5-(4-phenoxyphenyl)-7H-pyrrolo[2,3-d]pyrimidin-7-yl)-1-(methylamino)cyclohexyl)-N-methylacetamide]",IC50,< 0.05 µM
"CN1CCN([C@H]2CC[C@H](n3nc(-c4c(F)cc(Oc5ccccc5)cc4F)c4c(N)ncnc43)CC2)CC1 [Example 107, 3-(2,6-difluoro-4-phenoxyphenyl)-1-((trans)-4-(4-methylpiperazin-1-yl)cyclohexyl)-1H-pyrazolo[3,4-d]pyrimidin-4-amine]",IC50,< 0.05 µM
"CN1CCN([C@H]2CC[C@H](n3c(Br)c(-c4ccc(Oc5ccccc5)cc4)c4c(N)ncnc43)CC2)CC1 [Example 86, 6-Bromo-7-((trans)-4-(4-methylpiperazin-1-yl)cyclohexyl)-5-(4-phenoxyphenyl)-7H-pyrrolo[2,3-d]pyrimidin-4-amine]",IC50,0.05 to 0.25 µM
"Nc1ncnc2c1c(-c1ccc(Oc3ccccc3)cc1)cn2[C@H]1CC[C@H](N2CCN3CCC[C@H]3C2)CC1 [Example 46, 7-((trans)-4-((S)-hexahydropyrrolo[1,2-a]pyrazin-2(1H)-yl)cyclohexyl)-5-(4-phenoxyphenyl)-7H-pyrrolo[2,3-d]pyrimidin-4-amine]",IC50,< 0.05 µM
"Nc1ncnc2c1c(-c1ccc(Oc3ccccc3)cc1)cn2[C@H]1CC[C@H](N2CCN3CCC[C@@H]3C2)CC1 [Example 48, 7-((trans)-4-((R)-hexahydropyrrolo[1,2-a]pyrazin-2(1H)-yl)cyclohexyl)-5-(4-phenoxyphenyl)-7H-pyrrolo[2,3-d]pyrimidin-4-amine]",IC50,< 0.05 µM
"C[C@@H]1CN([C@H]2CC[C@@H](n3nc(-c4ccc(Oc5ccccc5)cc4F)c4c(N)ncnc43)CC2)CCN1 [Example 18, 3-(2-fluoro-4-phenoxyphenyl)-1-((cis)-4-((R)-3-methylpiperazin-1-yl)cyclohexyl)-1H-pyrazolo[3,4-d]pyrimidin-4-amine]",IC50,0.25 to 10 µM
"Nc1ncnc2c1c(-c1ccc(Oc3ccccc3)cc1)cn2[C@H]1CC[C@@H](N2C[C@@H](O)[C@@H](O)C2)CC1 [Example 76, (3R,4S)-1-((cis)-4-(4-amino-5-(4-phenoxyphenyl)-7H-pyrrolo[2,3-d]pyrimidin-7-yl)cyclohexyl)pyrrolidine-3,4-diol]",IC50,0.05 to 0.25 µM
"Nc1ncnc2c1c(-c1ccc(Oc3ccccc3)cc1)cn2C1CCC(O)(Cn2ccnc2)CC1 (centres unmarked) [Example 101, 1-((1H-Imidazol-1-yl)methyl)-4-(4-amino-5-(4-phenoxyphenyl)-7H-pyrrolo[2,3-d]pyrimidin-7-yl)cyclohexanol]",IC50,0.05 to 0.25 µM
"CN1CCN([C@H]2CC[C@H](n3cc(-c4ccc(Oc5ccccc5)cc4)c4c(N)ncnc43)CC2)CC1C(=O)O (stereo partly drawn) [Example 34, 4-((trans)-4-(4-amino-5-(4-phenoxyphenyl)-7H-pyrrolo[2,3-d]pyrimidin-7-yl)cyclohexyl)-1-methylpiperazine-2-carboxylic acid]",IC50,< 0.05 µM
"Nc1ncnc2c1c(-c1ccc(Oc3ccccc3)cc1)cn2C1CCN(C(CO)CO)CC1 [Example 161, 2-(4-(4-amino-5-(4-phenoxyphenyl)-7H-pyrrolo[2,3-d]pyrimidin-7-yl)piperidin-1-yl)propane-1,3-diol]",IC50,< 0.05 µM
"CN1CC2(C1)CN([C@H]1CC[C@@H](n3cc(-c4ccc(Oc5ccccc5)cc4)c4c(N)ncnc43)CC1)C2 [Example 80, 7-((cis)-4-(6-methyl-2,6-diazaspiro[3.3]heptan-2-yl)cyclohexyl)-5-(4-phenoxyphenyl)-7H-pyrrolo[2,3-d]pyrimidin-4-amine]",IC50,0.25 to 10 µM
"COC(=O)C1CC(N2CCC(n3cc(-c4ccc(Oc5ccccc5)cc4)c4c(N)ncnc43)CC2)CCN1 (centres unmarked) [Example 158, methyl 4-(4-amino-5-(4-phenoxyphenyl)-7H-pyrrolo[2,3-d]pyrimidin-7-yl)-[1,4′-bipiperidine]-2′-carboxylate]",IC50,0.05 to 0.25 µM
"CN1CCN([C@H]2CC[C@H](c3nc(-c4ccc(Oc5ccccc5)cc4)c4c(N)nccn43)CC2)CC1 [Example 173, 3-((trans)-4-(4-Methylpiperazin-1-yl)cyclohexyl)-1-(4-phenoxyphenyl)imidazo[1,5-a]pyrazin-8-amine]",IC50,< 0.05 µM
"Nc1ncnc2c1c(-c1ccc(Oc3ccccc3)cc1)cn2C1CCC(N2CC3CCC2CN3)CC1 (centres unmarked) [Example 37, 7-(4-(2,5-diazabicyclo[2.2.2]octan-2-yl)cyclohexyl)-5-(4-phenoxyphenyl)-7H-pyrrolo[2,3-d]pyrimidin-4-amine]",IC50,< 0.05 µM
"CN(C)[C@H]1CN([C@H]2CC[C@@H](n3cc(-c4ccc(Oc5ccccc5)cc4)c4c(N)ncnc43)CC2)C[C@H]1O [Example 72, (3R,4S)-1-((cis)-4-(4-amino-5-(4-phenoxyphenyl)-7H-pyrrolo[2,3-d]pyrimidin-7-yl)cyclohexyl)-4-(dimethylamino)pyrrolidin-3-ol]",IC50,< 0.05 µM
"Nc1ncnc2c1c(-c1ccc(Oc3ccccc3)cc1)cn2[C@H]1CC[C@@H](N2CCNCC2=O)CC1 [Example 91, 1-((cis)-4-(4-Amino-5-(4-phenoxyphenyl)-7H-pyrrolo[2,3-d]pyrimidin-7-yl)cyclohexyl)piperazin-2-one]",IC50,0.05 to 0.25 µM
"Nc1ncnc2c1c(-c1ccc(Oc3ccccc3)cc1)cn2C1CCC2(CC1)OCC(N)CO2 (centres unmarked) [Example 92, 7-(3-Amino-1,5-dioxaspiro[5.5]undecan-9-yl)-5-(4-phenoxyphenyl)-7H-pyrrolo [2,3-d]pyrimidin-4-amine]",IC50,0.05 to 0.25 µM
"COC(=O)CC1(N)CCC(n2cc(-c3ccc(Oc4ccccc4)cc3)c3c(N)ncnc32)CC1 (centres unmarked) [Example 95, Methyl 2-(1-amino-4-(4-amino-5-(4-phenoxyphenyl)-7H-pyrrolo[2,3-d]pyrimidin-7-yl)cyclohexyl) acetate]",IC50,0.25 to 10 µM
"Nc1ncn([C@H]2CC[C@H](n3cc(-c4ccc(Oc5ccccc5)cc4)c4c(N)ncnc43)CC2)n1 [Example 81, 7-((trans)-4-(3-amino-1H-1,2,4-triazol-1-yl)cyclohexyl)-5-(4-phenoxyphenyl)-7H-pyrrolo [2,3-d]pyrimidin-4-amine]",IC50,< 0.05 µM
